From US20230346831A1, “METHODS FOR TREATING […] USING LOW DOSE CARBON MONOXIDE” (priority 2020, published 2023)
“And” between values parts separate entries of the source, which are not always exact repeats. Identical values can stand only once.

System: MDA-MB-231/TGL cells
Assay: metabolomic assay (polar metabolite profiling, mass spectrometry)
Format: cell-based, human
Experimental: Cells were seeded in a 10 cm cell culture plate with DMEM containing 10% FBS, 0.2 mM L-glutamine and 1% penicillin/streptomycin. After 16 hours of incubation, metabolites were extracted from the cells using 80% methanol. The remaining steps were carried out with no change according to the methods of Goncalves et al, PNAS, 115:4, E743-E752 (2018). All data analyses were done using MetaboAnalyst.
7 × 10^6 cells were seeded in 10-cm cell culture plates with DMEM containing 10% FBS, 0.2 mM L-glutamine and 1% penicillin/streptomycin. Additionally, MCF7/TGL/pQ was cultured in media containing 0.5 µgml^-1 puromycin and 25 mM HEPES. After 16 hours of incubation, metabolites were extracted from the cells using 80% methanol. The remaining steps were carried out by Weill Cornell Medicine Proteomics and Metabolomics Core Facility according to M. D. Goncalves et al., Proc Natl Acad Sci USA 115, E743-E752 (2018). All data analyses were done using MetaboAnalyst 4.0 (www.metaboanalyst.ca/).
To investigate whether 250 ppm CO mimics hypoxia, the HiF1α protein levels were examined in CO treated MCF7/TGL and MDA-MB-231/TGL cells. […] To determine whether 250 ppm CO affects metabolism, polar metabolites were profiled using two breast cancer cell lines, MCF7/TGL and MDA-MB-231/TGL (FIGS. 7-9).

[1] = MDA-MB-231/TGL cells treated with CO (250 ppm), replicates CO 1-3

## [C-]#[O+] [CO, Carbon monoxide]
MCF7/TGL and MDA-MB-231/TGL cells, 250 ppm CO, 16 hours
  cis-aconitic acid: significantly downregulated
[1]
  Peak Height of metabolite intensity: 2-Hydroxycaproic acid (HMDB01624): 244,811 and 833,959 and 281,142
  Peak Height of metabolite intensity: 2-Hydroxyvaleric acid (HMDB01863): 621,532 and 904,968 and 786,820
  Peak Height of metabolite intensity: 2-Ketobutyric acid (HMDB00005): 5,289,178 and 6,027,442 and 5,724,353
  Peak Height of metabolite intensity: 2-Ketohexanoic acid (HMDB01864): 21,644,820 and 23,261,950
  Peak Height of metabolite intensity: 3-Hydroxyhippuric acid (HMDB06116): 67,709 and 54,023 and 55,195
  Peak Height of metabolite intensity: 3-Hydroxymethylglutaric acid (HMDB00355): 20,353,060 and 19,480,200 and 19,066,660
  Peak Height of metabolite intensity: 3-Phosphoglyceric acid (HMDB00807): 2,076,132 and 820,562 and 843,315
  Peak Height of metabolite intensity: 3-hydroxyhexadecanoic acid (HMDB61658): 119,550 and 182,677 and 362,311
  Peak Height of metabolite intensity: 4-Acetamidobutanoic acid (HMDB03681): 438,862 and 501,312 and 487,324
  Peak Height of metabolite intensity: 4-Hydroxybenzaldehyde (HMDB11718): 1,623,875 and 1,610,244 and 2,163,467
  Peak Height of metabolite intensity: 5-Adenosylhomocysteine (HMDB00939): 502,295 and 543,231 and 555,202
  Peak Height of metabolite intensity: 5-Thymidylic acid (HMDB01227): 1,061,384 and 1,368,086 and 1,260,084
  Peak Height of metabolite intensity: 5′-Methylthioadenosine (HMDB01173): 1,678,515 and 1,980,683 and 3,013,280
  Peak Height of metabolite intensity: 6-Phosphogluconic acid (HMDB01316): 394,956 and 515,553 and 654,253
  Peak Height of metabolite intensity: 7-Methylguanosine (HMDB01107): 25,667 and 34,657 and 32,703
  Peak Height of metabolite intensity: (R)-3-Hydroxydecanoic acid (HMDB10725): 88,715 and 193,751 and 99,729
  Peak Height of metabolite intensity: ADP (HMDB01341): 4,962,730 and 5,529,189 and 5,002,783
  Peak Height of metabolite intensity: ADP-glucose (HMDB06557): 84,781 and 90,192 and 99,689
  Peak Height of metabolite intensity: AICAR (HMDB01517): 32,080 and 59,426
  Peak Height of metabolite intensity: Acetylcholine (HMDB00895): 34,254,070 and 37,448,230 and 42,218,910
  Peak Height of metabolite intensity: Acetylcysteine (HMDB01890): 3,133,666 and 3,527,413 and 3,894,968
  Peak Height of metabolite intensity: Adenine (HMDB00034): 1,219,554 and 812,836 and 907,390
  Peak Height of metabolite intensity: Adenosine (HMDB00050): 18,973,870 and 624,270 and 424,559
  Peak Height of metabolite intensity: Adenosine monophosphate (HMDB00045): 6,997,849 and 8,959,282 and 6,609,897
  Peak Height of metabolite intensity: Adenosine triphosphate (HMDB00538): 7,254,237 and 6,217,538 and 7,426,501
  Peak Height of metabolite intensity: Allantoic acid (HMDB01209): 66,783 and 51,760 and 61,927
  Peak Height of metabolite intensity: Allantoin (HMDB00462): 1,362,548 and 1,445,842 and 1,605,951
  Peak Height of metabolite intensity: Alpha-Lactose (HMDB00186): 636,775 and 666,969 and 547,770
  Peak Height of metabolite intensity: Aminoadipic acid (HMDB00510): 5,352,894 and 5,983,553 and 6,501,110
  Peak Height of metabolite intensity: Arachidonic acid (HMDB01043): 219,569 and 129,238 and 117,457
  Peak Height of metabolite intensity: Argininosuccinic acid (HMDB00052): 397,796 and 561,328 and 632,101
  Peak Height of metabolite intensity: Asymmetric dimethylarginine (HMDB01539): 5,492,503 and 6,220,486 and 6,753,139
  Peak Height of metabolite intensity: Betaine (HMDB00043): 126,207,200 and 122,297,900 and 134,080,700
  Peak Height of metabolite intensity: Biotin (HMDB00030): 28,122 and 15,310
  Peak Height of metabolite intensity: CDP (HMDB01546): 536,936 and 604,322 and 492,208
  Peak Height of metabolite intensity: CDP-Ethanolamine (HMDB01564): 100,228 and 130,601 and 162,582
  Peak Height of metabolite intensity: Caprylic acid (HMDB00482): 470,899 and 477,590 and 472,338
  Peak Height of metabolite intensity: Carnosine (HMDB00033): 2,256,265 and 2,245,049 and 2,446,163
  Peak Height of metabolite intensity: Choline (HMDB00097): 108,427,800 and 109,880,900 and 111,858,100
  Peak Height of metabolite intensity: Citicoline (HMDB01413): 361,538 and 444,892 and 574,461
  Peak Height of metabolite intensity: Citric acid (HMDB00094): 74,805,210 and 82,630,710 and 89,689,600
  Peak Height of metabolite intensity: Citrulline (HMDB00904): 15,240,380 and 14,266,830 and 19,605,850
  Peak Height of metabolite intensity: Coenzyme A (HMDB01423): 109,174 and 125,366 and 106,848
  Peak Height of metabolite intensity: Creatine (HMDB00064): 123,445,200 and 119,145,800 and 129,072,700
  Peak Height of metabolite intensity: Creatinine (HMDB00562): 23,236,710 and 23,501,360 and 25,483,820
  Peak Height of metabolite intensity: Cytidine (HMDB00089): 225,855 and 258,465 and 227,521
  Peak Height of metabolite intensity: Cytidine monophosphate (HMDB00095): 724,977 and 871,719 and 625,602
  Peak Height of metabolite intensity: Cytidine triphosphate (HMDB00082): 183,937 and 215,682 and 295,169
  Peak Height of metabolite intensity: D-2,3-Dihydroxypropanoic acid (HMDB31818): 2,140,143 and 2,437,835 and 2,431,980
  Peak Height of metabolite intensity: D-2-Hydroxyglutaric acid (HMDB00606): 3,167,321 and 3,985,443 and 4,584,429
  Peak Height of metabolite intensity: D-Arabitol (HMDB00568): 3,445,547 and 3,545,938 and 4,135,015
  Peak Height of metabolite intensity: D-Fructose (HMDB00660): 6,135,849 and 6,547,945 and 7,210,193
  Peak Height of metabolite intensity: D-Glucose (HMDB00122): 36,851,430 and 39,288,740 and 42,369,140
  Peak Height of metabolite intensity: D-Glyceraldehyde 3-phosphate (HMDB01112): 6,590,523 and 2,998,173 and 3,562,678
  Peak Height of metabolite intensity: D-Ribose 5-phosphate (HMDB01548): 624,479 and 581,839 and 786,584
  Peak Height of metabolite intensity: D-Ribose (HMDB00283): 2,183,962 and 2,605,392 and 2,639,392
  Peak Height of metabolite intensity: D-Sedoheptulose 7-phosphate (HMDB01068): 561,321 and 572,202 and 625,243
  Peak Height of metabolite intensity: DL-O-Phosphoserine (HMDB01721): 185,294 and 163,584 and 141,059
  Peak Height of metabolite intensity: Deoxyinosine (HMDB00071): 8,871 and 6,834 and 15,777
  Peak Height of metabolite intensity: Deoxyribose 5-phosphate (HMDB01031): 50,751 and 42,917 and 52,112
  Peak Height of metabolite intensity: Deoxyuridine (HMDB00012): 40,015 and 22,277 and 25,003
  Peak Height of metabolite intensity: Dimethylglycine (HMDB00092): 10,914,430 and 13,334,130 and 17,506,690
  Peak Height of metabolite intensity: Erythritol (HMDB02994): 598,716 and 590,438 and 628,349
  Peak Height of metabolite intensity: Fructose 1,6-bisphosphate (HMDB01058): 10,176,490 and 12,986,490 and 13,433,710
  Peak Height of metabolite intensity: Fructose 6-phosphate (HMDB00124): 2,660,942 and 2,572,195 and 2,965,940
  Peak Height of metabolite intensity: Fumaric acid (HMDB00134): 8,464,455 and 9,727,776 and 11,821,440
  Peak Height of metabolite intensity: GDP-glucose (HMDB03351): 92,740 and 103,248 and 99,915
  Peak Height of metabolite intensity: Gluconic acid (HMDB00625): 37,957,970 and 52,856,170 and 64,673,460
  Peak Height of metabolite intensity: Glucosamine 6-phosphate (HMDB01254): 529,990 and 692,898 and 945,530
  Peak Height of metabolite intensity: Glucose 6-phosphate (HMDB01401): 2,103,241 and 2,833,469 and 3,624,968
  Peak Height of metabolite intensity: Glutathione (HMDB00125): 99,156,710 and 109,797,600 and 130,505,000
  Peak Height of metabolite intensity: Glycerol3-phosphate (HMDB00126): 758,556 and 825,062 and 1,025,018
  Peak Height of metabolite intensity: Glycerophosphocholine (HMDB00086): 347,562,900 and 361,214,700 and 419,624,900
  Peak Height of metabolite intensity: Glycine (HMDB00123): 45,296,030 and 53,615,700 and 58,796,920
  Peak Height of metabolite intensity: Guanosine (HMDB00133): 619,336 and 155,195 and 131,494
  Peak Height of metabolite intensity: Guanosine diphosphate (HMDB01201): 493,573 and 471,968 and 538,827
  Peak Height of metabolite intensity: Guanosine monophosphate (HMDB01397): 465,594 and 655,797 and 560,973
  Peak Height of metabolite intensity: Hippuric acid (HMDB00714): 47,961 and 38,230 and 36,149
  Peak Height of metabolite intensity: Hypotaurine (HMDB00965): 6,754,939 and 7,052,286 and 8,446,435
  Peak Height of metabolite intensity: Hypoxanthine (HMDB00157): 211,957 and 135,595 and 141,122
  Peak Height of metabolite intensity: Imidazolelactic acid (HMDB02320): 128,804 and 165,439 and 221,241
  Peak Height of metabolite intensity: Indolelactic acid (HMDB00671): 84,732 and 90,304 and 155,173
  Peak Height of metabolite intensity: Inosine (HMDB00195): 2,168,084 and 318,912 and 236,433
  Peak Height of metabolite intensity: Inosinic acid (HMDB00175): 178,233 and 246,521 and 243,587
  Peak Height of metabolite intensity: Kynurenic acid (HMDB00715): 51,692 and 41,122 and 61,792
  Peak Height of metabolite intensity: L-Acetylcarnitine (HMDB00201): 106,933,600 and 121,142,500 and 148,690,900
  Peak Height of metabolite intensity: L-Arginine (HMDB00517): 31,387,180 and 29,265,460 and 31,837,150
  Peak Height of metabolite intensity: L-Asparagine (HMDB00168): 21,992,250 and 21,453,690 and 27,389,900
